Test results: PubChem BioAssay AID330 (DTP/NCI, 2004)
Where “and” joins values, the source holds several entries; their conditions need not be identical. Equal values may be shown once. Toxic doses and inconclusive results are not listed.

System: P388 leukemia ip, CD2F1 mice, survival T/C
Assay: NCI In Vivo Anticancer Drug Screen. Data for tumor model P388 Leukemia (intraperitoneal) in CD2F1 (CDF1) mice
Settings: endpoint: median survival time, higher = longer survival
Procedure, shortened: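 Mice carrying the transplanted tumor received test compound or vehicle. Survival was recorded in each group, and the value is the treated-group measurement divided by that of the vehicle-treated control group.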

[1] = dose: 60.0 mg/kg/injection, schedule: Q01DX005 (ip), vehicle: saline with Tween-80
[2] = dose: 120.0 mg/kg/injection, schedule: Q01DX005 (ip), vehicle: saline with Tween-80
[3] = dose: 240.0 mg/kg/injection, schedule: Q01DX005 (ip), vehicle: saline with Tween-80
[4] = dose: 60.0 mg/kg/injection, schedule: Q01DX005 (ip), vehicle: Klucel (hydroxypropylcellulose) (HPC)
[5] = dose: 120.0 mg/kg/injection, schedule: Q01DX005 (ip), vehicle: Klucel (hydroxypropylcellulose) (HPC)
[6] = dose: 240.0 mg/kg/injection, schedule: Q01DX005 (ip), vehicle: Klucel (hydroxypropylcellulose) (HPC)
[7] = dose: 25.0 mg/kg/injection, schedule: Q04DX003 (ip), vehicle: other
[8] = dose: 50.0 mg/kg/injection, schedule: Q04DX003 (ip), vehicle: other
[9] = dose: 100.0 mg/kg/injection, schedule: Q04DX003 (ip), vehicle: other
[10] = dose: 50.0 mg/kg/injection, schedule: Q01DX005 (ip), vehicle: saline with Tween-80
[11] = dose: 100.0 mg/kg/injection, schedule: Q01DX005 (ip), vehicle: saline with Tween-80
[12] = dose: 200.0 mg/kg/injection, schedule: Q01DX005 (ip), vehicle: saline with Tween-80
[13] = dose: 25.0 mg/kg/injection, schedule: Q01DX001 (ip), vehicle: Klucel (hydroxypropylcellulose) (HPC)
[14] = dose: 50.0 mg/kg/injection, schedule: Q01DX009 (ip), vehicle: saline with Tween-80
[15] = dose: 100.0 mg/kg/injection, schedule: Q01DX009 (ip), vehicle: saline with Tween-80
[16] = dose: 200.0 mg/kg/injection, schedule: Q01DX009 (ip), vehicle: saline with Tween-80
[17] = dose: 12.5 mg/kg/injection, schedule: Q01DX009 (ip), vehicle: saline
[18] = dose: 25.0 mg/kg/injection, schedule: Q01DX009 (ip), vehicle: saline
[19] = dose: 50.0 mg/kg/injection, schedule: Q01DX009 (ip), vehicle: saline

In the case of C=CN=NNc1cc(OC)ccc1OC, the T/C (dose: 100.0 mg/kg/injection, schedule: Q04DX003 (ip), vehicle: saline + Tween-80 + alcohol) is reported as 105 % of control, the T/C (dose: 200.0 mg/kg/injection, schedule: Q04DX003 (ip), vehicle: saline + Tween-80 + alcohol) is reported as 103 % of control and the T/C (dose: 400.0 mg/kg/injection, schedule: Q04DX003 (ip), vehicle: saline + Tween-80 + alcohol) is reported as 102 % of control.
For Nc1nnc(/C=C/c2ccccc2)o1, the T/C [1] was 117 % of control, the T/C [2] was 107 % of control and the T/C [3] was 109 % of control.
CC[P+](c1ccccc1)(c1ccccc1)c1ccccc1 was tested, and the T/C (dose: 0.62 mg/kg/injection, schedule: Q01DX009 (ip), vehicle: saline with Tween-80) was 111 % of control, the T/C (dose: 1.25 mg/kg/injection, schedule: Q01DX009 (ip), vehicle: saline with Tween-80) was 104 % of control and the T/C (dose: 2.5 mg/kg/injection, schedule: Q01DX009 (ip), vehicle: saline with Tween-80) was 112 % of control. The T/C (dose: 5.0 mg/kg/injection, schedule: Q01DX009 (ip), vehicle: saline with Tween-80) was 119 % of control.
For COc1ccc(S(=O)(=O)O)cc1N=N/C(=N/Nc1cc(S(=O)(=O)O)ccc1OC)C(=O)Nc1ccccc1, the T/C [4] was 101 % of control, the T/C [5] was 101 % of control and the T/C [6] was 105 % of control.
Cc1c2ccccc2cc2c1ccc1ccccc12 was tested, and the T/C (dose: 17.5 mg/kg/injection, schedule: Q01DX009 (ip), vehicle: saline with Tween-80) was 116 % of control, the T/C [7] was 100 % of control and the T/C (dose: 35.0 mg/kg/injection, schedule: Q01DX009 (ip), vehicle: saline with Tween-80) was 122 % of control. The T/C [8] was 100 % of control, the T/C (dose: 70.0 mg/kg/injection, schedule: Q01DX009 (ip), vehicle: saline with Tween-80) was 152 % of control and the T/C [9] was 102 % of control. The T/C (dose: 200.0 mg/kg/injection, schedule: Q04DX003 (ip), vehicle: other) was 102 % of control and the T/C (dose: 400.0 mg/kg/injection, schedule: Q04DX003 (ip), vehicle: other) was 107 % of control.
In the case of CCC(=O)c1c(O)c2ccccc2oc1=O, the T/C (dose: 15.0 mg/kg/injection, schedule: Q01DX005 (ip), vehicle: saline with Tween-80) is reported as 104 % of control, the T/C (dose: 30.0 mg/kg/injection, schedule: Q01DX005 (ip), vehicle: saline with Tween-80) is reported as 107 % of control and the T/C [1] is reported as 104 % of control.
In the case of COc1ccc(C(C)(c2cc(C(C)(C)C)c(O)c(C(C)(C)C)c2)n2ccnc2)cc1 (centres undefined), the T/C [10] is reported as 98 % of control, the T/C [11] is reported as 94 % of control and the T/C [12] is reported as 91 % of control.
In the case of CN1C(=O)c2ccccc2NC(=O)C12O[C@@H]2c1cccc(O)c1 (some centres undefined), the T/C (dose: 1.63 mg/kg/injection, schedule: Q01DX005 (ip), vehicle: DMSO) is reported as 106 % of control, the T/C (dose: 3.25 mg/kg/injection, schedule: Q01DX005 (ip), vehicle: DMSO) is reported as 106 % of control and the T/C (dose: 6.5 mg/kg/injection, schedule: Q01DX005 (ip), vehicle: DMSO) is reported as 113 % of control. For the same compound, the T/C (dose: 13.0 mg/kg/injection, schedule: Q01DX005 (ip), vehicle: DMSO) was 100 % of control.
Cc1ccc(C(=O)Nc2ccc(N(CCCl)CCCl)cc2)cc1 was tested, and the T/C (dose: 6.25 mg/kg/injection, schedule: Q01DX001 (ip), vehicle: Klucel (hydroxypropylcellulose) (HPC)) was 102 % of control, the T/C (dose: 12.5 mg/kg/injection, schedule: Q01DX001 (ip), vehicle: Klucel (hydroxypropylcellulose) (HPC)) was 108 % of control and the T/C [13] was 110 % of control.
For CC(C)=CCC(O)/C(C)=C/CC/C(=C/CC/C(C)=C/CO)CO (centres undefined), the T/C (dose: 3.88 mg/kg/injection, schedule: Q01DX005 (ip), vehicle: Klucel (hydroxypropylcellulose) (HPC)) was 93 % of control, the T/C (dose: 7.75 mg/kg/injection, schedule: Q01DX005 (ip), vehicle: Klucel (hydroxypropylcellulose) (HPC)) was 100 % of control and the T/C (dose: 15.5 mg/kg/injection, schedule: Q01DX005 (ip), vehicle: Klucel (hydroxypropylcellulose) (HPC)) was 102 % of control. The T/C (dose: 31.0 mg/kg/injection, schedule: Q01DX005 (ip), vehicle: Klucel (hydroxypropylcellulose) (HPC)) was 102 % of control.
For N#Cc1c(C(=O)NN)cc(-c2cccc3ccccc23)[nH]c1=O, the T/C [10] was 107 % of control and the T/C [11] was 103 % of control.
For O=C1CN(c2cccc(Cl)c2)C(=O)CN1/N=C/c1cccnc1, the T/C (dose: 25.0 mg/kg/injection, schedule: Q01DX005 (ip), vehicle: saline with Tween-80) was 96 % of control, the T/C [10] was 87 % of control and 91 % of control and the T/C [12] was 87 % of control.
For CC1C2=C(CC(C)(C)CC2=O)OC2=C1C(=O)CC(C)(C)C2, the T/C [14] was 103 % of control, the T/C [15] was 104 % of control and the T/C [16] was 99 % of control.
In the case of C[n+]1c2ccccc2cc2[nH]c3ccccc3c21, the T/C (dose: 6.25 mg/kg/injection, schedule: Q01DX005 (ip), vehicle: Klucel + Tween-80) is reported as 105 % of control.
CCN(CC)CCCOC(=O)c1ccc(N)cc1 was tested, and the T/C [17] was 100 % of control, the T/C (dose: 12.5 mg/kg/injection, schedule: Q04DX003 (ip), vehicle: saline) was 91 % of control and the T/C [18] was 109 % of control. The T/C (dose: 25.0 mg/kg/injection, schedule: Q04DX003 (ip), vehicle: saline) was 91 % of control, the T/C [19] was 104 % of control and the T/C (dose: 50.0 mg/kg/injection, schedule: Q04DX003 (ip), vehicle: saline) was 87 % of control.
COc1cc(/C=N/NC(=O)CNC(=O)c2ccccc2)ccc1O was tested, and the T/C [1] was 93 % of control, the T/C [2] was 95 % of control and the T/C [3] was 94 % of control.
Cc1ccc(/C=C2\SC(=S)N(C3CC3)C2=O)cc1 was tested, and the T/C (dose: 50.0 mg/kg/injection, schedule: Q01DX005 (ip), vehicle: Klucel (hydroxypropylcellulose) (HPC)) was 97 % of control, the T/C (dose: 100.0 mg/kg/injection, schedule: Q01DX005 (ip), vehicle: Klucel (hydroxypropylcellulose) (HPC)) was 95 % of control and the T/C (dose: 200.0 mg/kg/injection, schedule: Q01DX005 (ip), vehicle: Klucel (hydroxypropylcellulose) (HPC)) was 93 % of control.
In the case of Oc1ccc2ccccc2c1CN(Cc1c(O)ccc2ccccc12)C1CCCCC1, the T/C [10] is reported as 97 % of control, the T/C [11] is reported as 96 % of control and the T/C [12] is reported as 104 % of control.
For COC1/C=C/OC2(C)Oc3c(C)c(O)c4c(c3C2=O)C(=O)C2=C(NC(=NC2)/C(C)=C\C=C\C(C)C(O)C(C)C(O)C(C)C(OC(C)=O)C1C)C4=O (centres undefined), the T/C (dose: 6.25 mg/kg/injection, schedule: Q04DX003 (ip), vehicle: other) was 94 % of control, the T/C (dose: 12.5 mg/kg/injection, schedule: Q04DX003 (ip), vehicle: other) was 101 % of control and the T/C [7] was 113 % of control. For the same compound, the T/C [8] was 109 % of control and the T/C [9] was 122 % of control.
CN(C=O)c1ccc(Cl)cc1 was tested, and the T/C (dose: 100.0 mg/kg/injection, schedule: Q04DX002 (ip), vehicle: saline) was 100 % of control, the T/C (dose: 200.0 mg/kg/injection, schedule: Q04DX002 (ip), vehicle: saline) was 97 % of control and the T/C (dose: 400.0 mg/kg/injection, schedule: Q04DX002 (ip), vehicle: saline) was 100 % of control.
CC(=O)NCCNC(Cc1ccccc1)C(=O)O (centres undefined) was tested, and the T/C [13] was 108 % of control, the T/C (dose: 50.0 mg/kg/injection, schedule: Q01DX001 (ip), vehicle: Klucel (hydroxypropylcellulose) (HPC)) was 101 % of control and the T/C (dose: 100.0 mg/kg/injection, schedule: Q01DX001 (ip), vehicle: Klucel (hydroxypropylcellulose) (HPC)) was 100 % of control and 101 % of control.
C/C=C/C/C=C/CCC(=O)C1OC1C(N)=O (centres undefined) was tested, and the T/C (dose: 8.0 mg/kg/injection, schedule: Q01DX009 (ip), vehicle: Klucel (hydroxypropylcellulose) (HPC)) was 93 % of control, the T/C (dose: 16.0 mg/kg/injection, schedule: Q01DX009 (ip), vehicle: Klucel (hydroxypropylcellulose) (HPC)) was 93 % of control and the T/C (dose: 32.0 mg/kg/injection, schedule: Q01DX009 (ip), vehicle: Klucel (hydroxypropylcellulose) (HPC)) was 102 % of control. For the same compound, the T/C (dose: 64.0 mg/kg/injection, schedule: Q01DX009 (ip), vehicle: Klucel (hydroxypropylcellulose) (HPC)) was 93 % of control.
In the case of O=C1CCCC2=C1[Se]C1(O2)C(=O)CCCC1=O, the T/C [17] is reported as 102 % of control, the T/C [18] is reported as 101 % of control and the T/C [19] is reported as 104 % of control and 107 % of control.
For N#CC(C(=O)O)C1(c2ccccc2)CCCCC1 (centres undefined), the T/C [14] was 101 % of control, the T/C [15] was 93 % of control and the T/C [16] was 105 % of control.
For Clc1ccc2c(N3CCC(CCC4CCN(c5ncnc6cc(Cl)ccc56)CC4)CC3)ncnc2c1, the T/C [10] was 96 % of control, the T/C [11] was 94 % of control and the T/C [12] was 88 % of control.
COc1ccc(C2NC(=S)NC(C)=C2C(N)=O)cc1 (centres undefined) was tested, and the T/C [4] was 101 % of control, the T/C [5] was 95 % of control and the T/C [6] was 96 % of control.
